In PubChem BioAssay (NCI):
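Test compounds were applied to cells in 96-well plates for 48 hours at 5 doses. Abbreviation: GI50, concentration required for 50% inhibition of growth. At the TGI there is no net growth.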

Tests used:
Experiment in all cases: growth of human tumour cells (NCI), 48 h
SNB-75 CNS = tested on: SNB-75 CNS
NCI/ADR-RES ovarian = tested on: NCI/ADR-RES ovarian
A549 NSCLC = tested on: A549 NSCLC
T-47D breast = tested on: T-47D breast
OVCAR-5 ovarian = tested on: OVCAR-5 ovarian
SN12C renal = tested on: SN12C renal
SK-MEL-5 melanoma = tested on: SK-MEL-5 melanoma
DU-145 prostate = tested on: DU-145 prostate
SR leukemia = tested on: SR leukemia
HOP-92 NSCLC = tested on: HOP-92 NSCLC
PC-3 prostate = tested on: PC-3 prostate
MDA-MB-435 = tested on: MDA-MB-435
ACHN renal = tested on: ACHN renal
HT29 colon = tested on: HT29 colon
HCT-116 colon = tested on: HCT-116 colon
OVCAR-3 ovarian = tested on: OVCAR-3 ovarian
SW-620 colon = tested on: SW-620 colon
SK-MEL-2 melanoma = tested on: SK-MEL-2 melanoma
IGROV1 ovarian = tested on: IGROV1 ovarian
NCI-H226 lung = tested on: NCI-H226 lung
UACC-62 melanoma = tested on: UACC-62 melanoma
KM12 colon = tested on: KM12 colon
OVCAR-8 ovarian = tested on: OVCAR-8 ovarian
786-0 renal = tested on: 786-0 renal
SK-OV-3 ovarian = tested on: SK-OV-3 ovarian
CAKI-1 renal = tested on: CAKI-1 renal
NCI-H522 lung = tested on: NCI-H522 lung
K-562 leukemia = tested on: K-562 leukemia
UO-31 renal = tested on: UO-31 renal
COLO 205 colon = tested on: COLO 205 colon
NCI-H23 lung = tested on: NCI-H23 lung
EKVX NSCLC = tested on: EKVX NSCLC
MOLT-4 leukemia = tested on: MOLT-4 leukemia
HCT-15 colon = tested on: HCT-15 colon
SF-268 CNS = tested on: SF-268 CNS
UACC-257 melanoma = tested on: UACC-257 melanoma
NCI-H460 lung = tested on: NCI-H460 lung
U251 CNS = tested on: U251 CNS
SK-MEL-28 melanoma = tested on: SK-MEL-28 melanoma
MDA-MB-231 breast = tested on: MDA-MB-231 breast
LOX IMVI melanoma = tested on: LOX IMVI melanoma
SNB-19 CNS = tested on: SNB-19 CNS
HS 578T breast = tested on: HS 578T breast
TK-10 renal = tested on: TK-10 renal
MALME-3M melanoma = tested on: MALME-3M melanoma
RPMI-8226 leukemia = tested on: RPMI-8226 leukemia
SF-295 CNS = tested on: SF-295 CNS
M14 melanoma = tested on: M14 melanoma
HCC-2998 colon = tested on: HCC-2998 colon
HOP-62 NSCLC = tested on: HOP-62 NSCLC
MCF7 breast = tested on: MCF7 breast
CCRF-CEM leukemia = tested on: CCRF-CEM leukemia

In the case of COC12C=CC(CC1)C(C)(C)C2O (stereo not drawn), the TGI (SNB-75 CNS) is reported as > 100 µM.
In the case of COc1ccc(Cn2c3c(c4c(O)cccc42)C(=O)c2ccccc2-3)cc1, the GI50 (NCI/ADR-RES ovarian) is reported as 2.51 µM, the TGI (NCI/ADR-RES ovarian) is reported as 11.3 µM and the GI50 (A549 NSCLC) is reported as 8.52 µM. For the same molecule, the TGI (A549 NSCLC) was 32 µM, the GI50 (T-47D breast) was 11 µM and the TGI (T-47D breast) was 37.9 µM. For the same molecule, the GI50 (OVCAR-5 ovarian) was 10 µM, the TGI (OVCAR-5 ovarian) was 21.6 µM and the GI50 (SN12C renal) was 15.6 µM. The TGI (SN12C renal) was 29 µM, the GI50 (SK-MEL-5 melanoma) was 7.76 µM and the TGI (SK-MEL-5 melanoma) was 20.6 µM. For the same molecule, the GI50 (DU-145 prostate) was 12.5 µM, the TGI (DU-145 prostate) was 24.9 µM and the GI50 (SR leukemia) was 13.9 µM. For the same molecule, the TGI (SR leukemia) was 30.5 µM, the GI50 (HOP-92 NSCLC) was 0.233 µM and the TGI (HOP-92 NSCLC) was 4.23 µM. It also gave a GI50 (PC-3 prostate) of 12.8 µM, a TGI (PC-3 prostate) of 25.4 µM and a GI50 (MDA-MB-435) of 13.3 µM. The TGI (MDA-MB-435) was 30.8 µM, the GI50 (ACHN renal) was 5.14 µM and the TGI (ACHN renal) was 16.6 µM. It also gave a GI50 (HT29 colon) of 16 µM, a TGI (HT29 colon) of 38.5 µM and a GI50 (HCT-116 colon) of 9.16 µM. For the same molecule, the TGI (HCT-116 colon) was 21.5 µM, the GI50 (OVCAR-3 ovarian) was 14.3 µM and the TGI (OVCAR-3 ovarian) was 28.7 µM. For the same molecule, the GI50 (SW-620 colon) was 12.6 µM, the TGI (SW-620 colon) was 36.9 µM and the GI50 (SK-MEL-2 melanoma) was 18.2 µM. For the same molecule, the TGI (SK-MEL-2 melanoma) was 45.9 µM, the GI50 (IGROV1 ovarian) was 11.2 µM and the TGI (IGROV1 ovarian) was > 100 µM. For the same molecule, the GI50 (NCI-H226 lung) was 13.4 µM, the TGI (NCI-H226 lung) was 32.8 µM and the GI50 (UACC-62 melanoma) was 14.5 µM. The TGI (UACC-62 melanoma) was 30.1 µM, the GI50 (KM12 colon) was 7.65 µM and the TGI (KM12 colon) was 22 µM. It also gave a GI50 (OVCAR-8 ovarian) of 3.08 µM, a TGI (OVCAR-8 ovarian) of 13.2 µM and a GI50 (786-0 renal) of 4.02 µM. It also gave a TGI (786-0 renal) of 16.7 µM, a GI50 (SK-OV-3 ovarian) of 14.9 µM and a TGI (SK-OV-3 ovarian) of 28.1 µM. For the same molecule, the GI50 (CAKI-1 renal) was 14.9 µM, the TGI (CAKI-1 renal) was 29.6 µM and the GI50 (NCI-H522 lung) was 12.3 µM. The TGI (NCI-H522 lung) was 93.1 µM, the GI50 (K-562 leukemia) was 24.3 µM and the TGI (K-562 leukemia) was > 100 µM. For the same molecule, the GI50 (UO-31 renal) was 13.8 µM, the TGI (UO-31 renal) was 67.7 µM and the GI50 (COLO 205 colon) was 25.9 µM. It also gave a TGI (COLO 205 colon) of 92.3 µM, a GI50 (NCI-H23 lung) of 9.24 µM and a TGI (NCI-H23 lung) of 22 µM. It also gave a GI50 (EKVX NSCLC) of 12 µM, a TGI (EKVX NSCLC) of 27.7 µM and a GI50 (MOLT-4 leukemia) of 15.8 µM. It also gave a TGI (MOLT-4 leukemia) of 49.3 µM, a GI50 (HCT-15 colon) of 16.1 µM and a TGI (HCT-15 colon) of 89.8 µM. For the same molecule, the GI50 (SF-268 CNS) was 8.75 µM, the TGI (SF-268 CNS) was 29.1 µM and the GI50 (UACC-257 melanoma) was 11.7 µM. The TGI (UACC-257 melanoma) was 27.2 µM, the GI50 (NCI-H460 lung) was 12.8 µM and the TGI (NCI-H460 lung) was 36.5 µM. For the same molecule, the GI50 (U251 CNS) was 14.1 µM, the TGI (U251 CNS) was 27.1 µM and the GI50 (SK-MEL-28 melanoma) was 11.6 µM. It also gave a TGI (SK-MEL-28 melanoma) of 25 µM, a GI50 (MDA-MB-231 breast) of 12.8 µM and a TGI (MDA-MB-231 breast) of 25.4 µM. The GI50 (LOX IMVI melanoma) was 18.8 µM, the TGI (LOX IMVI melanoma) was 47.8 µM and the GI50 (SNB-19 CNS) was 6.05 µM. For the same molecule, the TGI (SNB-19 CNS) was 23.4 µM, the GI50 (HS 578T breast) was 4.44 µM and the TGI (HS 578T breast) was 20.4 µM. It also gave a GI50 (TK-10 renal) of 4.36 µM, a TGI (TK-10 renal) of 18.3 µM and a GI50 (MALME-3M melanoma) of 8.71 µM. It also gave a TGI (MALME-3M melanoma) of 22.4 µM, a GI50 (RPMI-8226 leukemia) of 11.8 µM and a TGI (RPMI-8226 leukemia) of 33.9 µM. For the same molecule, the GI50 (SF-295 CNS) was 12.6 µM, the TGI (SF-295 CNS) was 26.2 µM and the GI50 (M14 melanoma) was 14.4 µM. The TGI (M14 melanoma) was 38 µM, the GI50 (HCC-2998 colon) was 8.26 µM and the TGI (HCC-2998 colon) was 21.7 µM. The GI50 (HOP-62 NSCLC) was 4.39 µM, the TGI (HOP-62 NSCLC) was 14.9 µM and the GI50 (MCF7 breast) was 10.7 µM. The TGI (MCF7 breast) was 28.1 µM, the GI50 (CCRF-CEM leukemia) was 73.6 µM and the TGI (CCRF-CEM leukemia) was > 100 µM.
